Measurements published in publication PMC8406801, “Naringenin Inhibits Platelet Activation and Arterial Thrombosis Through Inhibition of Phosphoinositide 3-Kinase and Cyclic Nucleotide Signaling” (Frontiers in Pharmacology, 2021).
Several values for one entry are separate records, joined by “and”; a condition that tells them apart may be missing. Equal values may be shown once.

Tests used:
Type in all cases: cell-based, rat
[1] = test system: washed platelets on fibrinogen-coated coverslips; assay: Platelet spreading on fibrinogen; settings: for surface coverage, platelet spreading on fibrinogen: mean ± SD, n = 3, vehicle 30.37 ± 3.31%; for Area (%) of platelets spread on fibrinogen: single replicates
Procedure: Washed platelets were incubated with vehicle or various concentrations of naringenin at 37°C for 10 min in the presence of 2 mM CaCl2 and allowed to spread on fibrinogen-coated coverslips for 45 min at 37°C ([Liu et al., 2016]). After washed three times with phosphate-buffered saline (PBS), adherent platelets were fixed with 4% paraformaldehyde, permeabilized with 0.1% Triton X-100 and stained with TRITC-conjugated phalloidin (1 μg/ml) in the dark at room temperature for 60 min. Adherent platelets were observed under an inverted fluorescence microscope (Nikon TE-2000S) and processed using Image J software.

cAMP = assay: Measurement of cAMP in washed platelets (ELISA); settings: single replicates
Procedure: Washed platelets were preincubated with vehicle or various concentrations of naringenin in the presence of 2 mM CaCl2 at 37°C for 5 min and then stimulated with ADP (10 μM) for 5 min for platelet aggregation. The reaction was terminated by adding EDTA (10 mM). The platelets were boiled for 5 min at 100 °C followed by centrifugation at 13,000 × g for 5 min cAMP and cGMP levels in the supernatant were measured using cAMP or cGMP enzyme immunoassay kits (Cayman Chemicals, Ann Arbor, MI, United States).
FIGURE 6 Naringenin elevates platelet cGMP levels and inhibits phosphodiesterase activity. The levels of cAMP (A) and cGMP (B) in washed platelets preincubated with vehicle or naringenin (100, 200, 400, and 800 μmol/L) were determined after stimulation with ADP (10 μmol/L) using ELISA kits. Similarly, the levels of cAMP (C) and cGMP (D) were determined in resting platelets incubated with naringenin (200, 400, and 800 μmol/L) or vehicle for 5 min. R represents the levels of cAMP or cGMP in resting platelets. Data are expressed as means ± SD (n = 4). *p < 0.05, ***p < 0.001 compared with the vehicle control group. The effects of naringenin on phosphodiesterase activity were measured by HPLC on the hydrolysis of cAMP (E) and cGMP (F). The level of phosphodiesterase activity obtained with vehicle control (0 μM) was taken as 100%. Data are expressed as means ± SD (n = 3). *p < 0.05, ***p < 0.001 compared with the vehicle control group.

[2] = test system: VASP Ser239 phosphorylation; assay: Immunoblotting of phospho-VASP (Ser239) in ADP-stimulated washed platelets, with or without PKA, PKG, PKC inhibitors; settings: for p-VASP(Ser239) / GAPDH (Fold to ADP only) / p-VASP(Ser239) / GAPDH (raw data): ADP-stimulated, Figure 7C
Procedure: For in vitro platelet aggregation, aliquots of washed platelets were preincubated with vehicle or various concentrations of naringenin for 5 min and stimulated with ADP (10 μmol/L) under stirring at 37°C for 5 min. For ex vivo platelet aggregation, PRP was incubated at 37°C for 5 min and stimulated with ADP (5 μmol/L) under stirring at 37 °C. The platelet aggregation was terminated by adding ethylenediaminetetraacetic acid (EDTA; 10 mM). Total protein was prepared using RIPA lysis buffer and protein content was determined by bicinchoninic acid (BCA) protein assay kit. Equal amounts of platelet proteins (30 μg) were separated on 10% SDS polyacrylamide gel electrophoresis (SDS-PAGE) and then transferred to poly vinylidene difluoride (PVDF) membranes and subjected to western blot. Blots were blocked with TBS-Tween 20 containing 5% BSA and probed with primary antibodies diluted in blocking solution at 4°C overnight followed by incubation with the corresponding HRP secondary antibodies. The protein bands were visualized using enhanced chemiluminescence (ECL).
VASP is a substrate for cAMP- and cGMP- dependent protein kinases, which mediate cAMP- and cGMP-dependent inhibitory signaling in platelets, respectively. Increased cAMP levels followed by the activation of cAMP-dependent protein kinase A (PKA) phosphorylates VASP at position Ser157, whereas the elevation of cGMP leads to VASP phosphorylation at position Ser239 by cGMP-dependent protein kinase G (PKG) ([Aszódi et al., 1999]; [Li et al., 2003a]). To further examine whether naringenin modulates cAMP- or cGMP-mediated inhibitory signaling, the phosphorylation of VASP (Ser157 and Ser239) in washed platelets on stimulation with ADP were measured in the absence or presence of naringenin (100, 200, 400, and 800 μM). […] To further confirm the antiplatelet effects of naringenin through PKA-dependent signaling, the effects of naringenin on platelet aggregation were measured in the presence of PKG inhibitor (Rp-8-Br-PET-cGMPS) and PKA inhibitor (H89).
FIGURE 7 Naringenin promotes VASP phosphorylation. The effects of naringenin on phosphorylation of VASP (at positions Ser 157 and Ser239) were measured in washed platelets upon stimulation with ADP (10 μmol/L) by western blotting (A). The blots shown are representative of three separate experiments. The phosphorylation levels were quantified by ImageJ 1.47v software. The level of phosphorylation obtained with vehicle control (0 μM) was taken as 1 (B,C). R represents the phosphorylation level in resting platelets. Data are expressed as means ± SD (n = 3). *p < 0.05, ***p < 0.001 compared with the vehicle control group. VASP phosphorylation at Ser239 was also analyzed in washed platelets incubated with 5 μmol/L PKA (H89), 30 μmol/L PKG (Rp-8-Br-PET-cGMPS), or 5 μmol/L PKC (GF109203X) inhibitors before treatment with naringenin (D). Washed platelets were incubated with vehicle or naringenin (200 μmol/L) at 37°C in the presence or absence of 5 μmol/L PKA (H89) or 30 μmol/L PKG (Rp-8-Br-PET-cGMPS) inhibitors. After treatment, platelets were stimulated with ADP (10 μmol/L) to trigger aggregation (E). Data are expressed as means ± SD (n = 6). ***p < 0.001 compared with the ADP-treated group, ^# p < 0.05, ^### p < 0.001 compared with naringenin alone or H89 alone.

O=C1C[C@@H](c2ccc(O)cc2)Oc2cc(O)cc(O)c21 [Naringenin]
surface coverage, platelet spreading on fibrinogen ([1]; 100 μM): 20.96 ± 5.08% | Area (%) of platelets spread on fibrinogen ([1]; 100 μM): 25.76% and 15.64% and 21.47% | surface coverage, platelet spreading on fibrinogen ([1]; 200 μM): 15.29 ± 1.87% | Area (%) of platelets spread on fibrinogen ([1]; 200 μM): 16.88% and 15.75% and 13.23% | surface coverage, platelet spreading on fibrinogen ([1]; 400 μM): 10.56 ± 0.79% | Area (%) of platelets spread on fibrinogen ([1]; 400 μM): 9.69% and 11.23% and 10.75% | surface coverage, platelet spreading on fibrinogen ([1]; 800 μM): 6.98 ± 2.74% | Area (%) of platelets spread on fibrinogen ([1]; 800 μM): 4.62% and 6.33% and 9.98% | cAMP release (cAMP; ADP 10 μmol/L-stimulated platelets, 100 μM): 21.36 pmol/mL and 22.41 pmol/mL and 21.09 pmol/mL and 22.01 pmol/mL | cAMP release (cAMP; ADP 10 μmol/L-stimulated platelets, 200 μM): 21.75 pmol/mL and 22.14 pmol/mL and 22.01 pmol/mL and 23.59 pmol/mL | cAMP release (cAMP; ADP 10 μmol/L-stimulated platelets, 400 μM): 27.54 pmol/mL and 26.36 pmol/mL and 22.01 pmol/mL and 20.04 pmol/mL | cAMP release (cAMP; ADP 10 μmol/L-stimulated platelets, 800 μM): 22.54 pmol/mL and 21.62 pmol/mL and 23.20 pmol/mL and 26.75 pmol/mL | cAMP release (cAMP; resting platelets, 200 μM, 5 min): 19.51 pmol/mL and 23.07 pmol/mL and 21.88 pmol/mL and 25.17 pmol/mL | cAMP release (cAMP; resting platelets, 400 μM, 5 min): 23.59 pmol/mL and 22.67 pmol/mL and 21.88 pmol/mL and 20.96 pmol/mL | cAMP release (cAMP; resting platelets, 800 μM, 5 min): 19.64 pmol/mL and 23.59 pmol/mL and 22.67 pmol/mL and 22.14 pmol/mL | phosphorylation of VASP at Ser239 ([2]; ADP-stimulated washed platelets, 100, 200, 400, and 800 μM): induced the phosphorylation of VASP at Ser239 | p-VASP(Ser239) / GAPDH (Fold to ADP only) ([2]; naringenin 100 μM): 5.3418 and 4.6396 and 5.0239 | p-VASP(Ser239) / GAPDH (raw data) ([2]; naringenin 100 μM): 0.6957 and 0.6043 and 0.6543 | p-VASP(Ser239) / GAPDH (Fold to ADP only) ([2]; naringenin 200 μM): 4.4032 and 4.7219 and 3.7689 | p-VASP(Ser239) / GAPDH (raw data) ([2]; naringenin 200 μM): 0.5735 and 0.6150 and 0.4909 | p-VASP(Ser239) / GAPDH (Fold to ADP only) ([2]; naringenin 400 μM): 4.5890 and 4.9045 and 3.3393 | p-VASP(Ser239) / GAPDH (raw data) ([2]; naringenin 400 μM): 0.5977 and 0.6388 and 0.4349 | p-VASP(Ser239) / GAPDH (Fold to ADP only) ([2]; naringenin 800 μM): 5.3132 and 6.0564 and 4.7205 | p-VASP(Ser239) / GAPDH (raw data) ([2]; naringenin 800 μM): 0.6920 and 0.7888 and 0.6148
